Measurements as given in patent US20030104473A1, “Common ligand mimics: benzimidazoles” (priority 2001, published 2003).
Where two headings read alike, the source gives them in different places.

Experiments:
[1] = molecular target: dihydrodipicolinate reductase (DHPR) (Escherichia coli, UniProt P04036); assay: DHPR kinetic assay, spectrophotometric oxidation of NADPH at 340 nm; assay type: biochemical
Description: For DHPR analysis, the compounds were screened using a kinetic protocol that spectrophotometrically evaluates oxidation of NADPH.
Stock solutions of each of the reagents were prepared in the following concentrations. Dilutions of the stock solutions were prepared prior to running the assay in the concentrations indicated below. DHPR was diluted in 10 mM HEPES at a pH of 7.4. DHPS (dihydrodipicolinate synthase) was not diluted and was stored in eppindorf tubes.
The L-ASA (L-aspartate semialdehyde) solution was prepared in the following manner. […] stock solution of ASA was prepared. 100 μl of the ASA stock solution was mixed with 150 μl of concentrated NaHCO3 and 375 μl of H2O. For use in the assay, 28.8 mM L-ASA was equal to 625 μl of the solution. The L-ASA stock Aft solution was kept at a temperature of −20° C. After dilution, the pH of the 28.8 mM solution was checked and maintained between 1 and 2.
The DHPS reaction was monitored at 340 nm prior to and after addition of the inhibitor to detect background reaction with the inhibitor. The solution for background detection was a 945 μl solution containing 0.1 HEPES (pH 7.8), 1 mM pyruvate, 6 μM NADPH, 40 μM L-ASA, and 7 μl of 1 mg/ml DHPS at 25° C. in the volumes provided above. The sample solution was then mixed and incubated for 10 minutes. Next, 500 nM solutions of the inhibitors and enough DMSO to provide a final DMSO concentration of 5% of the total assay volume were added. The solution was mixed and incubated for an additional 6 minutes.
In DHPR samples, 5 μl of the diluted DHPR enzyme were added. The sample was mixed for 20 seconds and then the reaction was run for 10 minutes. After a 50 second lag, the samples were read in a Cary spectrophotometer at 340 nm. Reading of the samples was continued until 300 seconds. Cuvette #1 contained the control reaction (no inhibitor), and cuvette #2 contained the positive control reaction in which Cibacron Blue at 2.58 μM was substituted for inhibitor to yield 70 to 80% inhibition. The substrate was kept at a level at least 10 times the Km. The final concentration of L-ASA was about 1 mM.

[2] = molecular target: dihydrofolate reductase (DHFR) (UniProt P00374); assay: DHFR kinetic assay, spectrophotometric oxidation of NADH at 340 nm; assay type: biochemical
Description: For DHFR analysis, the compounds were screened using a kinetic protocol that spectrophotometrically evaluates oxidation of NADH.
Stock solutions of each of the reagents were prepared in the following concentrations. Dilutions of the stock solutions were prepared prior to running the assay in the concentrations indicated below. H2 folate was dissolved in DMSO to about 10 mM and then diluted with water to a concentration of 0.1 mM.
The DHFR reaction was monitored at 340 nm prior to and after addition of the inhibitor to detect background reaction with the inhibitor. Solutions of 100 μl of the inhibitors in DMSO were prepared to provide a final DMSO concentration of 5% of the total assay volume. These solutions were incubated for 6 minutes at 25° C. in a 992 μl of a solution containing 0.1 M Tris-HCl, pH 7.0, 150 mM KCl, 5 μM H2 folate, and 52 μM NADH. The oxidation reaction was then initiated with 8 μl of DHFR (0.047 mg/ml). After the enzyme was added, the solution was mixed for 20 seconds, and the reaction was run for 10 minutes. After a 50 second lag, the samples were read in a Cary spectrophotometer at 340 nm. Reading of the samples was continued until 300 seconds. Cuvette #1 always contained the control reaction (no inhibitor), and cuvette #2 always contained the positive control reaction in which Cibacron Blue at 3 μM was substituted for inhibitor to yield 50 to 70% inhibition. […]

[3] = molecular target: glyceraldehyde-3-phosphate dehydrogenase (GAPDH) (Escherichia coli, UniProt P0A9B2); assay: GAPDH kinetic assay, spectrophotometric reduction of NAD+ at 340 nm; assay type: biochemical, E. coli
Description: For GAPDH analysis, the compounds were screened using a kinetic protocol that spectrophotometrically evaluates reduction of NAD+.
Stock solutions of each of the reagents were prepared in the following concentrations. Dilutions of the stock solutions were prepared prior to running the assay in the concentrations indicated below.
The GAPDH reaction was monitored at 340 nm prior to and after addition of the inhibitor to detect background reaction with the inhibitor. Solutions of 100 μl of the inhibitors incubated for 6 minutes at 25° C. in a 990 μl of a solution containing 125 mM triethanolamine, pH 7.5, 145 μM glyceraldehyde 3-phosphate (GAP), 0.211 mM NAD, 5 mM sodium arsenate, and 3 mM β-metcaptoethanol (2-BME). The reaction was then initiated with 10 gl of E. coli GAPDH (1:200 dilution of 1.0 mg/ml). After the enzyme was added, the solution was mixed for 20 seconds, and the reaction was run for 10 minutes. After a 50 second lag, the samples were read in a Cary spectrophotometer at 340 nm. Reading of the samples was continued until 300 seconds. The final concentration of DMSO in a cuvette was about 5% of the total assay volume. Cuvette #1 contained the control reaction (no inhibitor).
GAP for use in this experiment was deprotected from the diethyl acetal in the following manner. Water was boiled in recrystallizing dish. […]

Sequence of dihydrodipicolinate reductase (DHPR) (P04036 whole entry): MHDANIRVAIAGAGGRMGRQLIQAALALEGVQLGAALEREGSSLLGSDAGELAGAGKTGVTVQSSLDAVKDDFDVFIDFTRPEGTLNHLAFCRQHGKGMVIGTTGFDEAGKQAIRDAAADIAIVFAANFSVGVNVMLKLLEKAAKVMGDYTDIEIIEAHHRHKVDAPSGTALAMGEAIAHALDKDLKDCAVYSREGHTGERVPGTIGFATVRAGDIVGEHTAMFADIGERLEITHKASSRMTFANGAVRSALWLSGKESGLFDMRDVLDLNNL
Sequence of glyceraldehyde-3-phosphate dehydrogenase (GAPDH) (P0A9B2 whole entry): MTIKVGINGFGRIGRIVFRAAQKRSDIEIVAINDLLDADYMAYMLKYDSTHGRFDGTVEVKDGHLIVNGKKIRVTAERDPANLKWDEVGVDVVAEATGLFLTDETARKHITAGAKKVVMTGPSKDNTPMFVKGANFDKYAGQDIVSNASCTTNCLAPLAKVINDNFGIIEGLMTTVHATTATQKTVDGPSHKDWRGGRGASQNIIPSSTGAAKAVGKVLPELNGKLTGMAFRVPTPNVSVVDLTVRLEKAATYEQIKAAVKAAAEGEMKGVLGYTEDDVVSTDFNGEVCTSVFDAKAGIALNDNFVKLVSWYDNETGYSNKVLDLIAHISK
Sequence of dihydrofolate reductase (DHFR) (P00374 whole entry): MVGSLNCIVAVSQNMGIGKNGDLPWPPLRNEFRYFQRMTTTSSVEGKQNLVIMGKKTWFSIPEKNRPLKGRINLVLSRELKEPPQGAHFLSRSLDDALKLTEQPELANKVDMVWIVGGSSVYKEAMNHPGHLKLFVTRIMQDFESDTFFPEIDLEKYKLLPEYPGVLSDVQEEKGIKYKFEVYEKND

Work on `O=C(O)c1ccc(-c2ccc(-c3nc4ccccc4[nH]3)o2)cc1` [compound 6b, 4-[5-(1H-benzoimidazol-2-yl)-furan-2-yl] benzoic acid] yielded an IC50 ([1]; Example 13 oxidoreductase panel (FIG. 7), read-out: IC50 for DHPR) greater than 48 µM, an IC50 ([1]; Example 14, common ligand mimics (FIG. 8), read-out: IC50 for DHPR) of 32.6 µM and an IC50 ([2]; Example 13 oxidoreductase panel (FIG. 7); read-out: IC50 for DHFR) greater than 40 µM. The IC50 ([3]; Example 13 oxidoreductase panel (FIG. 7), read-out: IC50 for GAPDH) was greater than 60 µM.

For `O=C(O)c1ccc(-c2ccc(-c3nc4cc([N+](=O)[O-])ccc4[nH]3)o2)cc1` [compound 6d, 4-[5-(5-nitro-1H-benzoimidazol-2-yl)-furan-2-yl]-benzoic acid], the IC50 ([1]; IC50 for DHPR, Example 13 oxidoreductase panel (FIG. 7)) was greater than 75 µM, the IC50 ([1]; IC50 for DHPR, Example 14, common ligand mimics (FIG. 8)) was greater than 75 µM and the IC50 ([2]; read-out: IC50 for DHFR; Example 13 oxidoreductase panel (FIG. 7)) was 48.5 µM. The IC50 [3] was greater than 150 µM.
